pIC50: −log10 of the molar value. Values joined by “and” are separate entries in the source; they are usually repeats but may differ in a detail not shown here. Identical values can stand only once. “Also recorded” adds a separate entry of the source. Like-named read-outs stand apart in the source and are kept apart here.
How the values were obtained:
S. aureus = system: S. aureus; parameters: method as in PMID 21347352, PMID 25605356, PMID 31035380; details: previously reported, Figure 1; cited from earlier work
S. aureus strain UAMS-1 [1] = system: S. aureus strain UAMS-1; parameters: method as in Colquhoun et al. [34]; details: ref Colquhoun et al. [34]; cited from earlier work
MTT cytotoxicity testing = details: human, HEP G2 cells (human liver epithelial cells)
Method: For the scaffold to have translational significance, it must be non-toxic to human cells. Accordingly, an initial assessment of toxicity was performed using human liver epithelial (HEP G2) cells via a 3-(4,5-dimethylthiazol-2-yl)-2,5-diphenyltetrazolium bromide (MTT) assay in the presence of up to 400 µM of each analog. […] Viability of 70% was used as the cut-off criteria for toxicity (Figure 4, dashed line), according to ISO guidelines, as described in Materials and Methods.
Human liver epithelial cells (HEP G2) were cultured in Dulbecco’s Modified Eagle Medium (DMEM; Fisher Scientific, Hampton, NH) supplemented with 10% heat inactivated fetal bovine serum (FBS; Corning Life Sciences) and 1% penicillin/streptomycin (Thermofisher Scientific). Cells were incubated at 37 °C with 5% CO2 in Nunc (Roskilde, Denmark) tissue culture flasks. Cells were grown in monolayers until exceeding 70% confluency, removed with 0.25% trypsin (Fisher Scientific), resuspended in fresh medium, and used to seed approximately 2.5 × 10^5 cells/mL into each well of a 96 well tissue culture microplate (Nunc) containing 200 µL of fresh medium. Cytotoxicity testing was conducted according to the guidelines of the International Organization for Standardization (ISO) 10993-5:2009. After 24 h of incubation, the cell media was removed, and adherent cells were washed with 1× phosphate buffered saline (PBS). Cell media was supplemented with 5% per volume of compound at final concentrations from 12.5 µM to 400 µM and incubated 20–24 h at 37 °C with 5% CO2. After incubation, medium supplemented with compound was removed from the wells and replaced with 100 µL of fresh culture medium. Then, 10 µL of 12 mM (3-(4,5-dimethylthiazol-2-yl)-2,5-diphenyltetrazolium bromide (MTT) stock reagent (CyQUANT MTT cell proliferation kit; Thermofisher Scientific) was added to each well. After labeling the cells with the MTT reagent, all but 25 µL of medium was removed from the wells, and 50 µL of DMSO was added to each well and mixed thoroughly and cells were incubated at 37 °C with 5% CO2 for 10 min. After incubation, wells were mixed again and using a SPECTRAmax5 microplate reader, absorbance was read at 540 nm. Cells were treated with 125 µg/mL mitomycin C (Fisher Scientific) to serve as a positive control and 2% DMSO as a negative control. […] All compounds were tested in two independent experiments in triplicate and cell viability was expressed as a percent of the negative control.

S. aureus UAMS-1 = assay: Fractional inhibitory concentration (FIC) testing with mupirocin; format: cell-based, Staphylococcus aureus; details: Staphylococcus aureus
Method: Fractional inhibitory concentration (FIC) testing was performed, as previously described. Briefly, each well of a 96-well microtiter plate was inoculated with 10^4 CFU of S. aureus UAMS-1 [42]. Each row of the plate was supplemented with two-fold increasing concentrations of mupirocin (0 µg mL^−1 to 2 µg mL^−1) whereas each column contained two-fold increasing concentrations of putative RnpA inhibitor compound (0.03, 0.0625, 0.125, 0.25, 0.5, 1, or 2× MIC). […] The FIC index was defined by the following formula: FIC = (MIC of Drug A in Combination/MIC of Drug A Alone) + (MIC of Drug B in Combination/MIC of Drug B Alone). A synergistic interaction was defined as a FIC value of ≤0.5, an additive interaction as 0.5–1, no interaction as 1–4 and antagonistic interaction as FIC ≥ 4, as described.

S. aureus RnpA = biological target: T1, S. aureus RnpA (Staphylococcus aureus, UniProt P0A0H5); assay: In vitro RnpA mRNA degradation assay (RNase Alert FRET substrate); format: biochemical
T1 construct: made in house; host or cells: E. coli BL21 (DE3)
T1 sequence (P0A0H5 1-117): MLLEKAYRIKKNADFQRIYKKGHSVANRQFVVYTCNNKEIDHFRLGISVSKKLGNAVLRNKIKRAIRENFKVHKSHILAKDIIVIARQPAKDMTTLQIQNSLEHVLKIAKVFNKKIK
Method: (§1) His-tagged RnpA was purified as previously described. E. coli BL21 (DE3) cells harboring plasmid pEXP5-nt containing a hexahistidine tag fused to the N-terminus of S.aureus RnpA coding region were grown in LB supplemented with 50 µg mL^−1 ampicillin to OD600 = 0.6 and induced with 1mM isopropyl β-D-1-thiogalactopyranoside (IPTG) for three hours to induce protein expression. […] Cells were mechanically lysed by three passes at 18,000 psi through a French Pressure Cell Press (SLM-Aminco; Pittsford, NY, USA) and cell debris was removed by centrifugation at 17,000× g for 10 min at 4 °C. Supernatants were collected, filtered through a 0.2 micron syringe filter, then loaded onto a 5 mL HisPur cobalt column (ThermoFisher Scientific, Waltham, MA, U.S.A.) using the BioRad Maximizer Duo-Flow Medium Pressure Chromatography System. Protein was eluted using an imidazole gradient (80 mM to 500 mM). Fractions were assessed for RnpA presence and purity via SDS-PAGE analysis, Coomassie staining and Western blotting using an anti-His antibody (Invitrogen; Grand Island, NY, USA).
RnpA-mediated degradation was assessed using the Rnase Alert QC System (Thermofisher Scientific). 20 pmol of His-RnpA was combined with 0.4 μM (final concentration) FRET substrate and either DMSO (negative control) or compound ≤500 µM in 1× Rnase Alert Buffer. Reactions were assembled in 96-well PCR plates (BioRad) and incubated at 37 °C for 30 min in the BioRad CFX 96 Connect Real Time instrument, measuring fluorescence every 2 min at 490 nm excitation/520 nm emission. Percent inhibition of each compound was calculated at the 30 min time-point based on the following formula: (RFU of compound treated RnpA/RFU of DMSO-treated RnpA) × 100.

S. aureus strain UAMS-1 [2] = assay: Minimum inhibitory concentration (MIC) testing, CLSI broth microdilution; format: cell-based, Staphylococcus aureus; details: Staphylococcus aureus, UAMS1
Method: Staphylococcus aureus strains UAMS-1 is a well-characterized antibiotic susceptible osteomyelitis clinical isolate (Blevins Infect. Immun 2003). For experiments, UAMS-1 was cultured in Mueller Hinton (MH) broth and processed as described below. Escherichia coli strain BL21 (DE3) was cultured in Luria–Bertani (LB) and supplemented with ampicillin (50 µg ml^−1) where indicated.
Minimum inhibitory concentration (MIC) was performed according to the Clinical and Laboratory Standards Institute (CLSI) guidelines. Briefly, individual wells of a 96-well microtiter plate were inoculated with 10^4 colony forming units (CFU) of S. aureus UAMS-1 containing two-fold increasing concentrations (0 µM to 100 µM) of the indicated antibiotic or putative RnpA inhibitor and grown at 37 °C for 16 h in MH broth. The MIC was defined as the lowest concentration of compound in which there was no visible bacterial growth detected by the unaided eye.

RNase P (RnpA + rnpB) = biological target: T2, RNase P (RnpA + rnpB) (Staphylococcus aureus, UniProt P0A0H5); assay: In vitro ptRNA^Tyr processing assay with reconstituted RNase P; format: biochemical; details: for pIC50: average of at least two tests
T2 construct: made in house; host or cells: E. coli BL21 (DE3)
T2 sequence (P0A0H5 1-117): T1 sequence (P0A0H5 1-117)
Method: as §1
rnpB and RNA substrates (spa, ptRNA^Tyr) for RnpA functional assays, as well as mature tRNA were synthesized in vitro, as previously described. Each gene was PCR amplified using S. aureus UAMS-1 chromosomal DNA as a template and the corresponding oligonucleotide primer pairs, in which the forward primers contained an RNA polymerase T7 promoter sequence. The following primer pairs were used in this study (T7 promoter underlined): T7-rnpB forward—[…] and rnpB reverse—[…]; T7-ptRNA^Tyr forward—[…] and ptRNA^Tyr reverse—TGGTGGAG GGGGGCAGATTC; T7-spa forward—[…] CGACGTCCAG and spa reverse—[…]. Resulting PCR products were analyzed on a 0.8% agarose gel and purified using the Qiagen QIAquick Gel Extraction kit, according to the manufacturer’s instructions. In vitro transcription was performed using the TranscriptAid T7 High Yield Transcription kit (Fermentas; Burlington, ON, Canada) following manufacturer’s instructions. Following in vitro transcription, the RNA was treated with DNase I for 90 min and re-purified using the Qiagen RNeasy Mini kit. RNA was quantified using a NanoDrop2000 spectrophotometer.
S.aureus Rnase P activity assays were performed as previously described. Briefly, ptRNA^Tyr and rnpB RNA was denatured by heating to 95 °C for 5 min then slow cooled to room temperature. RNA species were then combined with 2× low salt buffer (50 mM Tris-HCl pH 8.0, 5 mM MgCl2) and incubated for 5 min at 37 °C. Rnase P was reconstituted by mixing an equal molar ratio of His-RnpA and rnpB for 15 min at 37 °C. […] Then, 5 pmol ptRNA^Tyr was added to each reaction and incubated for an additional 30 min at 37 °C. Reactions were stopped with 2× RNA loading dye (Thermo Scientific) and heating to 65 °C for 10 min. Samples were electrophoresed on a 7M urea/8% polyacrylamide gel then stained with 0.5 µg mL^−1 ethidium bromide. The BioRad EZ Gel Doc imaging system was used to visualize the RNA and relative abundance of mature tRNA^Tyr in the DMSO control or in the samples containing compound and analyzed using BioRad Image Lab densitometry software. The percent inhibitory activity of each compound was calculated using the following equation: (% experimental processing/% processing negative control) × 100.

Question: With CC1CCN(C(=O)Nc2cc(Cl)cc(Cl)c2)CC1 [JC1] as the molecule, how does the “S. aureus MIC” value (S. aureus) read?
Answer: 3.4 µM

Question: Which MIC (S. aureus strain UAMS-1 [1]) does the source give for O=C(Nc1ccc(Cl)cc1)c1c(NC(=O)C(F)(F)F)sc2c1CCCCC2 [JR1] here?
Answer: 1.25 µM and 0.52 µg/mL

Question: What about the “S. aureus MIC” value (S. aureus) of the same molecule?
Answer: 1.25 µM

Question: Which viability at 400 µM (MTT cytotoxicity testing) does the source give for CO[C@@]12[C@H](COC(N)=O)C3=C(C(=O)C(C)=C(N)C3=O)N1C[C@@H]1N[C@@H]12 [Mitomycin C, reference compound] here?
Answer: 54.8%

Question: Which MIC (S. aureus UAMS-1; UAMS1, mupirocin alone, read-out: Mup MIC, Dosed-Individually) does the source give for C/C(=C\C(=O)OCCCCCCCCC(=O)O)C[C@@H]1OC[C@H](C[C@@H]2O[C@H]2[C@@H](C)[C@H](C)O)[C@@H](O)[C@H]1O [Mup, mupirocin, reference compound] here?
Answer: 0.5 µM

Question: With O=C(Nc1cccc(Cl)c1)c1c(NC(=O)C(F)F)sc2c1CCCCC2 [RNP0017] as the molecule, how does the MIC (S. aureus UAMS-1; UAMS1, compound alone, read-out: Cpd MIC, Dosed-Individually) read?
Answer: > 500 µM

Question: And the “Inhibition of in vitro RnpA-mediated RNA degradation (in words)” value (S. aureus RnpA)?
Answer: exhibited inhibitory activity

Question: And the pIC50 (S. aureus RnpA; in vitro RnpA-mediated RNA degradation, read-out: mRNA IC50)?
Answer: 4.37

Question: And the MIC (S. aureus strain UAMS-1 [2]; S. aureus strain UAMS-1, read-out: MIC)?
Answer: > 200 µg/mL

Question: What about the “Inhibition of in vitro RnpA ptRNA processing (in words)” value (RNase P (RnpA + rnpB)) of the same molecule?
Answer: did not appear to display any inhibition; also recorded: weak or no inhibitory activity

Question: What about the pIC50 (RNase P (RnpA + rnpB); in vitro ptRNA^Tyr processing, read-out: ptRNA IC50) of the same molecule?
Answer: < 3.60

Question: What does the source list for O=C(CF)Nc1sc2c(c1C(=O)Nc1cccc(Cl)c1)CCCCC2 [RNP0018]?
Answer: MIC (S. aureus UAMS-1; UAMS1, read-out: Cpd MIC, Dosed-Individually): > 500 µM; pIC50 (S. aureus RnpA): 4.48; Inhibition of in vitro RnpA-mediated RNA degradation (in words) (S. aureus RnpA): good inhibitory properties; also recorded: exhibited inhibitory activity; MIC (S. aureus strain UAMS-1 [2]): > 200 µg/mL; Inhibition of in vitro RnpA ptRNA processing (in words) (RNase P (RnpA + rnpB)): good inhibitory properties; pIC50 (RNase P (RnpA + rnpB); ptRNA IC50, in vitro ptRNA^Tyr processing): 4.24

Question: For Cc1cc(/C=C(/C#N)C(=O)Nc2cccc(Br)c2)c(C)n1-c1ccc(C(=O)O)cc1 [RNP1000], which “S. aureus MIC” value (S. aureus) is on record?
Answer: 34 to 69 µM
